Where “and” joins values, the source holds several entries; their conditions need not be identical. Identical values can stand only once.
How the values were obtained:
[1] = tested on: A875 NT cells; assay: Boyden chamber chemotaxis/invasion assay, A875 NT; assay type: cell-based, human; settings: for Fold change - invading cells, Mean / Fold change - invading cells, individual replicates: 1μM
Experimental: For Boyden chamber assay, Corning® BioCoat™ Matrigel® Invasion Chambers 8.0 µm PET Membrane were used (cat. no. 354480). A875 NT or WM115 cells were serum-starved for 16 h and then seeded at 60,000 cells per well in serum-free media under different conditions, including DMSO (vehicle) or small molecules Div17E5 or Np75-4A22 at different concentrations to the top chamber of the Matrigel-coated trans-well chamber. The pan-caspase inhibitor Q_VD_poH (at 5 µM) was also introduced in the top chamber in some experiments. Two different chemoattractants, NGF (at 50 ng/ml or 100 ng/ml as indicated) or 10% FBS were added to the bottom chamber. Assays were carried out for 8 h after which filters were fixed in 4% PFA and stained with DAPI. Cells that had remained on the top of the filter were gently scrapped away with a cotton tip. The filter lower side was imaged on an inverted fluorescence microscope and counted using ImageJ software (NIH).

[2] = tested on: A875 NT cells; assay: Wound healing cell motility assay, A875 NT; assay type: cell-based, human; settings: for Fold (wound area) / Wound area (Fold): A875 NT; for Fold (wound area): 0.75uM
Experimental: For wound healing assay, cells were grown until confluency and subjected to a wound across the cell mono-layer. Cells were then incubated with serum-free media either with DMSO or a small molecule (with or without 5 µM Q_VD_poH) and imaged at specific time-points. Cell migration is reflected as fold change in wound area over time.

## Cc1cccc(-c2cncc(Nc3ccc(Br)c(Cl)c3Cl)n2)c1C [Np75-4A22]
[1]; 0.5μM, NGF (50 ng/ml)
  INVADING CELLS Average: 217.00
  INVADING CELLS Fold Average: 1.60 Fold
  INVADING CELLS Fold change: 1.65 Fold and 1.68 Fold and 1.46 Fold
  INVADING CELLS count: 224 and 229 and 198
[1]; 0.5μM, No NGF
  INVADING CELLS Average: 115.33
  INVADING CELLS Fold Average: 0.85 Fold
  INVADING CELLS Fold change: 0.82 Fold and 0.92 Fold and 0.80 Fold
  INVADING CELLS count: 112 and 125 and 109
[1]; 0.75μM, NGF (50 ng/ml)
  INVADING CELLS Average: 161.00
  INVADING CELLS Fold Average: 1.18 Fold
  INVADING CELLS Fold change: 1.31 Fold and 1.11 Fold and 1.13 Fold
  INVADING CELLS count: 178 and 151 and 154
[1]; 0.75μM, No NGF
  INVADING CELLS Average: 131.00
  INVADING CELLS Fold Average: 0.96 Fold
  INVADING CELLS Fold change: 0.99 Fold and 1.01 Fold and 0.90 Fold
  INVADING CELLS count: 134 and 137 and 122
[1]; NGF
  Fold change - invading cells, Mean: 1.46
  Fold change - invading cells, individual replicates: 1.24 and 1.52 and 1.63
[1]; no NGF
  Fold change - invading cells, Mean: 0.96
  Fold change - invading cells, individual replicates: 1.22 and 0.88 and 0.78
[1]; 1 μM, NGF 50 ng/ml
  NGF activity in Boyden chamber assay of cell chemotaxis: blocked all NGF activity
[1]; submicromolar concentrations, NGF 50 ng/ml
  NGF-induced A875 chemotaxis: significantly reducing
[2]; 0 h, Average
  Fold (wound area): 1.000 Fold
[2]; 0 h, n1
  Fold (wound area): 1.000 Fold
[2]; 0 h, n2
  Fold (wound area): 1.000 Fold
[2]; 0 h, n3
  Fold (wound area): 1.000 Fold
[2]; 3 h, Average
  Fold (wound area): 0.916 Fold
[2]; 3 h, n1
  Fold (wound area): 0.908 Fold
[2]; 3 h, n2
  Fold (wound area): 0.920 Fold
[2]; 3 h, n3
  Fold (wound area): 0.920 Fold
[2]; 6 h, Average
  Fold (wound area): 0.871 Fold
[2]; 6 h, n1
  Fold (wound area): 0.867 Fold
[2]; 6 h, n2
  Fold (wound area): 0.870 Fold
[2]; 6 h, n3
  Fold (wound area): 0.875 Fold
[2]; 9 h, Average
  Fold (wound area): 0.851 Fold
[2]; 9 h, n1
  Fold (wound area): 0.821 Fold
[2]; 9 h, n2
  Fold (wound area): 0.862 Fold
[2]; 9 h, n3
  Fold (wound area): 0.870 Fold
[2]; 12 h, Average
  Fold (wound area): 0.799 Fold
[2]; 12 h, n1
  Fold (wound area): 0.783 Fold
[2]; 12 h, n2
  Fold (wound area): 0.824 Fold
[2]; 12 h, n3
  Fold (wound area): 0.790 Fold
[2]; 15 h, Average
  Fold (wound area): 0.781 Fold
[2]; 15 h, n1
  Fold (wound area): 0.755 Fold
[2]; 15 h, n2
  Fold (wound area): 0.799 Fold
[2]; 15 h, n3
  Fold (wound area): 0.789 Fold
[2]; 18 h, Average
  Fold (wound area): 0.759 Fold
[2]; 18 h, n1
  Fold (wound area): 0.732 Fold
[2]; 18 h, n2
  Fold (wound area): 0.791 Fold
[2]; 18 h, n3
  Fold (wound area): 0.755 Fold
[2]; 21 h, Average
  Fold (wound area): 0.739 Fold
[2]; 21 h, n1
  Fold (wound area): 0.694 Fold
[2]; 21 h, n2
  Fold (wound area): 0.751 Fold
[2]; 21 h, n3
  Fold (wound area): 0.773 Fold
[2]; 24 h, Average
  Fold (wound area): 0.707 Fold
[2]; 24 h, n1
  Fold (wound area): 0.674 Fold
[2]; 24 h, n2
  Fold (wound area): 0.730 Fold
[2]; 24 h, n3
  Fold (wound area): 0.715 Fold
[2]; 1uM, 0 h, Mean
  Wound area (Fold): 1.000 Fold
[2]; 1uM, 0 h, n1
  Wound area (Fold): 0.9625 Fold
[2]; 1uM, 0 h, n2
  Wound area (Fold): 0.9804 Fold
[2]; 1uM, 0 h, n3
  Wound area (Fold): 1.057 Fold
[2]; 1uM, 3 h, Mean
  Wound area (Fold): 0.967 Fold
[2]; 1uM, 3 h, n1
  Wound area (Fold): 0.9475 Fold
[2]; 1uM, 3 h, n2
  Wound area (Fold): 1.012 Fold
[2]; 1uM, 3 h, n3
  Wound area (Fold): 0.9416 Fold
[2]; 1uM, 6 h, Mean
  Wound area (Fold): 0.905 Fold
[2]; 1uM, 6 h, n1
  Wound area (Fold): 0.8734 Fold
[2]; 1uM, 6 h, n2
  Wound area (Fold): 0.9482 Fold
[2]; 1uM, 6 h, n3
  Wound area (Fold): 0.8944 Fold
[2]; 1uM, 9 h, Mean
  Wound area (Fold): 0.855 Fold
[2]; 1uM, 9 h, n1
  Wound area (Fold): 0.8188 Fold
[2]; 1uM, 9 h, n2
  Wound area (Fold): 0.9061 Fold
[2]; 1uM, 9 h, n3
  Wound area (Fold): 0.8389 Fold
[2]; 1uM, 12 h, Mean
  Wound area (Fold): 0.827 Fold
[2]; 1uM, 12 h, n1
  Wound area (Fold): 0.7941 Fold
[2]; 1uM, 12 h, n2
  Wound area (Fold): 0.8768 Fold
[2]; 1uM, 12 h, n3
  Wound area (Fold): 0.8105 Fold
[2]; 1uM, 15 h, Mean
  Wound area (Fold): 0.795 Fold
[2]; 1uM, 15 h, n1
  Wound area (Fold): 0.7522 Fold
[2]; 1uM, 15 h, n2
  Wound area (Fold): 0.8472 Fold
[2]; 1uM, 15 h, n3
  Wound area (Fold): 0.7844 Fold
[2]; 1uM, 18 h, Mean
  Wound area (Fold): 0.773 Fold
[2]; 1uM, 18 h, n1
  Wound area (Fold): 0.739 Fold
[2]; 1uM, 18 h, n2
  Wound area (Fold): 0.8198 Fold
[2]; 1uM, 18 h, n3
  Wound area (Fold): 0.7589 Fold
[2]; 1uM, 21 h, Mean
  Wound area (Fold): 0.762 Fold
[2]; 1uM, 21 h, n1
  Wound area (Fold): 0.7242 Fold
[2]; 1uM, 21 h, n2
  Wound area (Fold): 0.8105 Fold
[2]; 1uM, 21 h, n3
  Wound area (Fold): 0.7528 Fold
[2]; 1uM, 24 h, Mean
  Wound area (Fold): 0.743 Fold
[2]; 1uM, 24 h, n1
  Wound area (Fold): 0.7122 Fold
[2]; 1uM, 24 h, n2
  Wound area (Fold): 0.7843 Fold
[2]; 1uM, 24 h, n3
  Wound area (Fold): 0.7318 Fold
[2]; 2uM, 0 h, Mean
  Wound area (Fold): 1.000 Fold
[2]; 2uM, 0 h, n1
  Wound area (Fold): 1.119 Fold
[2]; 2uM, 0 h, n2
  Wound area (Fold): 0.971 Fold
[2]; 2uM, 0 h, n3
  Wound area (Fold): 0.910 Fold
[2]; 2uM, 3 h, Mean
  Wound area (Fold): 0.939 Fold
[2]; 2uM, 3 h, n1
  Wound area (Fold): 0.920 Fold
[2]; 2uM, 3 h, n2
  Wound area (Fold): 0.934 Fold
[2]; 2uM, 3 h, n3
  Wound area (Fold): 0.964 Fold
[2]; 2uM, 6 h, Mean
  Wound area (Fold): 0.916 Fold
[2]; 2uM, 6 h, n1
  Wound area (Fold): 0.889 Fold
[2]; 2uM, 6 h, n2
  Wound area (Fold): 0.924 Fold
[2]; 2uM, 6 h, n3
  Wound area (Fold): 0.935 Fold
[2]; 2uM, 9 h, Mean
  Wound area (Fold): 0.883 Fold
[2]; 2uM, 9 h, n1
  Wound area (Fold): 0.869 Fold
[2]; 2uM, 9 h, n2
  Wound area (Fold): 0.889 Fold
[2]; 2uM, 9 h, n3
  Wound area (Fold): 0.891 Fold
[2]; 2uM, 12 h, Mean
  Wound area (Fold): 0.872 Fold
[2]; 2uM, 12 h, n1
  Wound area (Fold): 0.845 Fold
[2]; 2uM, 12 h, n2
  Wound area (Fold): 0.886 Fold
[2]; 2uM, 12 h, n3
  Wound area (Fold): 0.885 Fold
[2]; 2uM, 15 h, Mean
  Wound area (Fold): 0.864 Fold
[2]; 2uM, 15 h, n1
  Wound area (Fold): 0.827 Fold
[2]; 2uM, 15 h, n2
  Wound area (Fold): 0.886 Fold
[2]; 2uM, 15 h, n3
  Wound area (Fold): 0.880 Fold
[2]; 2uM, 18 h, Mean
  Wound area (Fold): 0.859 Fold
[2]; 2uM, 18 h, n1
  Wound area (Fold): 0.819 Fold
[2]; 2uM, 18 h, n2
  Wound area (Fold): 0.879 Fold
[2]; 2uM, 18 h, n3
  Wound area (Fold): 0.879 Fold
[2]; 2uM, 21 h, Mean
  Wound area (Fold): 0.856 Fold
[2]; 2uM, 21 h, n1
  Wound area (Fold): 0.813 Fold
[2]; 2uM, 21 h, n2
  Wound area (Fold): 0.878 Fold
[2]; 2uM, 21 h, n3
  Wound area (Fold): 0.878 Fold
[2]; 2uM, 24 h, Mean
  Wound area (Fold): 0.847 Fold
[2]; 2uM, 24 h, n1
  Wound area (Fold): 0.809 Fold
[2]; 2uM, 24 h, n2
  Wound area (Fold): 0.868 Fold
[2]; 2uM, 24 h, n3
  Wound area (Fold): 0.864 Fold
[2]; low micromolar and submicromolar concentrations
  wound healing assay: considerable inhibitory activity

From publication PMC12514245, “Impaired migration and lung invasion of human melanoma by a novel small molecule targeting the transmembrane domain of death receptor p75^NTR” (EMBO Molecular Medicine, 2025)
